# “And” between values parts separate entries of the source, which are not always exact repeats. Equal values may be shown once.
# How the values were obtained:
# Huh-7 cells [1] = experiment: Uptake kinetics monitored by flow cytometry; format: cell-based, human; conditions: 2.5 μM; for exposure time at which uptake reaches plateau / saturation: 5 min to 4 h exposure
# Description: For flow cytometry experiments, cells were seeded in a 48-well plate as described above. For kinetics experiments of the uptake, solutions of 2.5 μM of compounds 7 or 17 in CCM were added. Control samples were CCM, containing an equal volume of DPBS instead of FBA-TP. All treatments were done in triplicate. The experiment was setup such that all samples could be harvested at the same time at the end of the experiment. The FBA-TP solutions where therefore added at different time points. At the end of the experiment, the cells were washed twice with DPBS, and thereafter harvested by addition of 0.25% trypsin-EDTA. The trypsin was neutralized by adding DPBS with 2% added FBS and samples were transferred to a 96 U-bottom well plate for high throughput readout.
# Measurements were generally performed on a BD LSRFortessa flow cytometer with an BD High Throughput Sampler (HTS). The system was connected to the software BD FACSDiva. Samples were excited using a 405 nm laser and emission passed through a bandpass filter centred at 450 nm (±20 nm). Uptake kinetics experiments were repeated twice. For monophosphate compounds, a Luminex CellStream flow cytometer with a high throughput sampler (HTS) connected to the CellStream Acquisition software was used. Excitation wavelength was 405 nm, with the emission passing through a 456/51 nm bandpass filter.
# Huh-7 cells [2] = experiment: Cellular incorporation into RNA (emission of extracted RNA); format: cell-based, human; conditions: 24 h exposure; for emission of RNA extracted from exposed cells (in-cellulo RNA labelling): excitation 350 nm (2CNqA) or 370 nm (pA)
# Description: RNA Extraction: Cells were seeded in 12-well plates as described above. Treatment solutions were prepared by diluting compounds 7 and 17 to a concentration of 2.5 μM or 5 μM in CCM. Conditioned medium was removed from the cells and treatment solutions were added. For control cells CCM alone was added. Cells were incubated for 24 h at 37° C. and 5% CO2. For RNA extraction and purification, a QIAGEN RNeasy Mini Kit was used, following the manufacturer's protocol. Briefly, the cells were washed with DPBS, lysed, homogenized by 12 times passing it through a 20-gauge needle (0.9 mm outer diameter), and added to an equal volume of ethanol. The resulting solution was transferred to a RNeasy spin column and centrifuged. Then, binding buffer was added on top of the column, where after it was centrifuged again. The column-bound RNA was washed five times with washing buffer, with a centrifugation step between each addition. To elute the extracted RNA, 30 μL of the provided RNase-free water was applied to the column and centrifuged. This step was repeated twice to increase the yield of extracted RNA.
# Three control samples were prepared to examine potential FBA-TP interferences with the extraction procedure, as well as non-covalent binding between the FBA-TP and RNA. 1) FBA-TP was added to the kit's lysate buffer to a concentration of 2.5 μM and treated in the same way starting from the homogenization step. 2) Unexposed cells were seeded and lysed as described above and FBA-TP was thereafter added directly to the lysate to make up a 2.5 μM final concentration. […] The concentration and purity of the RNA extracted from the unexposed cells were determined using a NanoDrop 2000 spectrophotometer (Thermo Scientific) and FBA-TP was added to reach a final concentration of 2.5 μM in the solution. […]
# Absorption and Emission Readout of cellular RNA: Absorption spectra of extracted and purified RNA samples and controls were recorded on a Cary 4000 spectrometer (Agilent Technologies) between 200 nm and 600 nm. Emission spectra were measured on a SPEX Fluorolog 3 spectrofluorimeter (Jobin Yvon Horiba). […]
# [3] = Photophysical characterisation (absorption and emission spectra in DPBS); format: physicochemical; conditions: room temperature; for ε405, FBA χ ΦF: at 405 nm; for λem, max / ΦF: excitation 355 nm; for ΦF: relative to quinine sulphate
# Description: Absorption spectra were recorded on a Cary 4000 spectrometer (Agilent Technologies). The emission spectra were measured on a SPEX Fluorolog 3 spectrofluorimeter (Jobin Yvon Horiba). Three consecutive emission spectra recorded at a scan rate of 600 nm min−1 were collected and averaged. The spectra of compounds 7 and 17 in DPBS were recorded from 360 nm to 695 nm with excitation at 355 nm. To avoid bleaching, the monochromator slits on the excitation side were set to 0.8 nm, and on the emission side to 2.5 nm.
# The spectra of molar absorptivities (ε in M^−1cm^−1) were calculated using Equation 1, with A being the measured absorption, A260 and ε260 the absorption or molar absorptivity, respectively, at 260 nm.
# The fluorescence quantum yields were determined relative to the quantum yield of quinine sulphate in 0.5 M H2SO4 (ϕF=0.546^42, referred to as reference), and calculated using Equation 2, in which subscripts s and r refer to sample and reference, respectively. I is the integrated fluorescence intensity, A the measured absorption of the fluorophore at the excitation wavelength and n is the refractive index of the solvent (H2O or H2SO4, respectively; Eaton D. F.; Pure Appl. Chem. 60, 1107-1114 [1988 ]).
# The spectroscopic properties of compounds 7 and 17 were determined under physiological conditions in order to determine the experimental setup for cell studies, with absorption and emission spectra being recorded in DPBS to mimic the ionic strength and salt composition in mammalian cells. To record emission spectra, the excitation wavelength was set to 355 nm, and measurements were performed at room temperature (ca. 22° C.). Molar absorptivities (s) were then calculated using the Beer-Lambert law.
Substance,lag phase of uptake (Huh-7 cells [1]),increase in cellular fluorescence over time (comparison) (Huh-7 cells [1]; 5 min to 4 h),exposure time at which uptake reaches plateau / saturation (Huh-7 cells [1]),emission of RNA extracted from exposed cells (in-cellulo RNA labelling) (Huh-7 cells [2]),absorption band peaks [3],"εmax, FBA χ ΦF [3]","λabs, max [3]","ε405, FBA χ ΦF [3]","λem, max [3]",ΦF [3],exposure time at which fluorescence is significantly over the initial (t=0) level (Huh-7 cells [1]),emission maximum of RNA extracted from exposed cells (Huh-7 cells [2]; excitation at 350 nm)
"((2R,3S,4R,5R)-5-(2,3,5,6-tetraazacyclopenta[de]tetracen-2(6H)-yl)-3,4-dihydroxytetrahydrofuran-2-yl)methyl hydrogen triphosphate [pATP]",15 min,significantly slower,> 4 h,on the same level as the controls,370 nm and 386 nm,6000 M⁻¹ cm⁻¹,386 nm,909 M⁻¹ cm⁻¹,420 nm,49%,–,–
"((2R,3S,4R,5R)-5-(8-cyano-2,3,5,6-tetraazaaceanthrylen-2(6H)-yl)-3,4-dihydroxytetrahydrofuran-2-yl)methyl hydrogen triphosphate [2CNqATP]",–,–,2 h,significant emission peak,–,4900 M⁻¹ cm⁻¹,352 nm,504 M⁻¹ cm⁻¹,463 nm,47%,5 min,460 nm

# Source: patent US20240209016A1, “FLUORESCENT NUCLEOSIDE PHOSPHATES” (STEALTH LABELS BIOTECH AB, priority 2021, published 2024)
